Test results published in patent US20080214563A1, “Benzimidazole Thiophene Compounds As Plk Modulators” (priority 2005, published 2008).

Assays:
HCT116 = assay: Methylene Blue Cell Growth Inhibition Assay, HCT116; assay type: cell-based; settings: Homo sapiens, HCT-116, 72 h, read-out: MEB HCT116 IC50
Protocol: (§1) Normal human foreskin fibroblasts (HFF), human colon (HCT116, RKO), lung (H460, A549) and breast (MCF7) tumor cell lines were cultured in high glucose DMEM (Life Technologies) containing 10% fetal bovine serum (FBS) at 37° C. in a humidified 5% CO2, 95% air incubator. Cells were harvested using trypsin/EDTA, counted using a haemocytometer, and plated in 100 μL of culture media per well, at the following densities, in a 96-well tissue culture plate (Falcon 3075): HFF 5,000 cells/well, HCT116 3,000 cells/well, RKO 2,500 cells/well, H460 2,500 cells/well, A549 5,000 cells/well, MCF7 4,000 cells/well. The next day, compounds were diluted in low glucose DMEM containing 100 μg/mL gentamicin, at twice the final required concentration, from 10 mM stock solutions in DMSO. 100 μL/well of these dilutions were added to the 100 μL of media currently in the assay plates. Medium containing 0.6% DMSO was added to control wells. The final concentration of DMSO in all wells was 0.3%. Cells were incubated at 37° C., 5% CO2 for 72 h. Medium was removed by aspiration. Cell biomass was estimated by staining cells with 80 μL per well methylene blue (Sigma M9140, 0.5% in 50:50 ethanol:water), and incubation at room temperature for 30-60 min. Stain was removed by aspiration and the plates rinsed by immersion in water, then air-dried. To release stain from the cells, 100 μL of solubilization solution was added (1% N-lauroyl sarcosine, Sodium salt, Sigma L5125, in PBS), and plates were shaken gently for about 30 min. Optical density at 620 nm was measured on a microplate reader. Percent inhibition of cell growth was calculated relative to vehicle treated control wells. Concentration of compound that inhibits 50% of cell growth (IC50) was interpolated using nonlinear regression (Levenberg-Marquardt) and the equation, y=Vmax*(1−(x/(K+x)))+Y2, where “K” was equal to the IC50.

[1] = Intravenous pharmacokinetics in CD-1 mouse; assay type: in vivo; settings: plasma, iv bolus, male CD-1 mouse, dose 1.9-7.4 mg/kg per compound (Table 3)
Protocol: Preliminary investigation of the intravenous pharmacokinetics of compounds of invention were carried out in fed conscious CD-1 mouse. Compounds were formulated as 1-10 mg/kg, 5 mL/kg, 1-2 mg/mL solution (Table 3). Twenty one male mice (n=3 mice per time point) (˜30 g) received dose solution by bolus injection in the tail vein. The formulation for iv were either 20% beta cyclodextrin in saline pH 3.5-6 or PEG400:ethanol:saline (50:15:35 v/v). Blood samples (˜0.4 mL) were collected terminally by cardiac puncture following anesthetization in a CO2 chamber at 2, 15, 30, 60 min, 2, 4, and 6 h following iv administration. Blood samples were collected into tubes containing heparin and placed on crushed ice promptly after collection. Plasma was collected by centrifugation, frozen and stored at about −80° C. prior to analysis. Blood or plasma concentrations were determined by LC/MS/MS equipped with an electrospray ion source and using calibration curves for the appropriate matrix. The lower level of quantitation (LLQ) was 10 ng/mL. Blood or plasma concentration-time data were analyzed by non-compartmental methods using the computer program WinNonlin Professional (version 4.1). Area under the blood or plasma concentration-time curve (AUC) was calculated using the linear trapezoidal rule for each incremental trapezoid up to Cmax, and the log trapezoidal rule for each trapezoid thereafter. The terminal elimination rate constant (λz) was derived from the log-linear disposition phase of the concentration-time curve using least-squares regression analysis with visual inspection of the data to determine the appropriate number of terminal data points for regression analysis.
Following iv administration, the total body clearance (CL) was estimated. CL was calculated by dividing the dose by AUC(0−t). The clearance values were assigned as follows. Low <30 mL/min/kg, moderate 30-70 mL/min/kg, high >70 mL/min/kg. The assignment was based on hepatic blood flow i.e. hepatic blood flow of 0-30% low, 30-70% moderate and 70-100% high. The hepatic blood flow in mouse is ˜100 mL/min/kg.

[2] = test system: Normal human foreskin fibroblasts (HFF); assay: Methylene Blue Cell Growth Inhibition Assay, HFF; assay type: cell-based; settings: Fibroblast, 72 h, read-out: MEB HFF IC50
Protocol: as §1

MX-1 = assay: Methylene Blue Cell Growth Inhibition Assay, MX-1; assay type: cell-based; settings: Homo sapiens, MX1, 72 h, read-out: MEB MX-1 IC50
H460 = assay: Methylene Blue Cell Growth Inhibition Assay, H460; assay type: cell-based; settings: Homo sapiens, NCI-H460, 72 h, read-out: MEB H460 IC50
Protocol: as §1

A549 = assay: Methylene Blue Cell Growth Inhibition Assay, A549; assay type: cell-based; settings: Homo sapiens, 72 h, read-out: MEB A549 IC50
Protocol: as §1

RKO = assay: Methylene Blue Cell Growth Inhibition Assay, RKO; assay type: cell-based; settings: Homo sapiens, 72 h, read-out: MEB RKO IC50
Protocol: as §1

HCT-116 = assay: Cell-Titer Glo Cell Growth Inhibition Assay, HCT116; assay type: cell-based; settings: Homo sapiens, CellTiter-Glo, 72 h, read-out: CTG HCT116 IC50
Protocol: A549-L (human lung), BT474 (human breast), Colo 205 (human colon), H1299 (human lung), Hela (human cervix), HCT-116 (human colon), HN5 (human head and neck), HT29 (human colon), LNCap (human prostate), MCF7 (human breast), MDA-MB468 (human breast), MX-1 (human breast), RPMI 8226 (human peripheral blood), SKOV3 (human ovary) and P388 (murine leukemia) cell lines were cultured in RPMI1640 containing 10% fetal bovine serum at 37° C. in a 5% CO2 incubator. Cell lines were split into T75 flasks (Falcon #353136) two to three days prior to assay set up at density which yields approximately 70-80% confluency at time of harvest for assay. Cells were harvested using 0.25% trypsin with EDTA (Glibco/Invitrogen #25200-056), Cell counts were performed on cell suspensions using Trypan Blue exclusion staining, cells were then plated in 105 uL of culture media per well at the following densities in 96 well Costar #3916 black flat bottom plates: All human cell lines were plated at 500 cells/well. P388 were plated at 250 cells/well. All plates were placed at 5% CO2 37° C. overnight and then test compounds were added the following day. One plate of each cell type is treated with CellTiter-Glo (Promega #G7573) for a day 0 proliferation measurement and read as described below. The test compounds are prepared in clear U bottom polypropylene 96 well plates (Falcon #35-1190 with consecutive two fold dilutions. 9 uL of these dilutions was added into each well of the cell plates. The final concentration of DMSO in all wells is 0.15%. Cells were incubated at 37° C., 5% CO2 for 72 h. Following 72 h of incubation with compounds each plate was developed and read. CellTiter-Glo reagent was added to assay plates using a volume equivalent to the cell culture volume in the wells. Plates were shaken for approximately two minutes and incubated at room temperature for approximately 15 min and the chemiluminescent signal is read on the Victor V or Envison 2100 reader. […] Concentration of compound that inhibited 50% of cell growth (IC50) was analysis by 4 or 6 parameter fit of data using XLfit, value of no cell addition was subtracted from all samples for background.

MCF7 = assay: Methylene Blue Cell Growth Inhibition Assay, MCF7; assay type: cell-based; settings: Homo sapiens, 72 h, read-out: MEB MCF7 IC50
Protocol: as §1

PLK1 kinase domain = biological target: T1, PLK1 kinase domain (Homo sapiens, UniProt P53350); assay: Assay for Inhibition of PLK1 (33P SPA kinase assay); assay type: biochemical; settings: 2 nM PLK1 kinase domain, 1 μM ATP; read-out: PLK1 pIC50 (converted)
T1 construct: made in house; host or cells: baculovirus infected T. ni cells
Protocol: All procedures were performed at 4° C. Cells were lysed in 50 mM HEPES, 200 mM NaCl, 50 mM imidazole, 5% glycerol; pH 7.5. The homogenate was centrifuged at 14K rpm in a SLA-1500 rotor for 1 h and the supernatant filtered through a 1.2 micron filter. The supernatant was loaded onto a Nickel chelating Sepharose (Amersham Pharmacia) column and washed with lysis buffer. Protein was eluted using 20%, 30% and 100% buffer B steps where buffer B is 50 mM HEPES, 200 mM NaCl, 300 mM imidazole, 5% glycerol; pH 7.5. Fractions containing PLK were determined by SDS-PAGE. Fractions containing PLK were diluted five-fold with 50 mM HEPES, 1 mM DTT, 5% glycerol; pH 7.5, then loaded on an SP Sepharose (Amersham Pharmacia) column. After washing the column with 50 mM HEPES, 1 mM DTT, 5% glycerol; pH 7.5, PLK was step eluted with 50 mM HEPES, 1 mM DTT, 500 mM NaCl; 5% glycerol; pH 7.5. PLK was concentrated using a 10 kDa molecular weight cutoff membrane and then loaded onto a Superdex 200 gel filtration (Amersham Pharmacia) column equilibrated in 25 mM HEPES, 1 mM DTT, 500 mM NaCl, 5% glycerol; pH 7.5. Fractions containing PLK were determined by SDS-PAGE. PLK was pooled, aliquoted and stored at −80° C. Samples were quality controlled using mass spectrometry, N-terminal sequencing and amino acid analysis.
B. Enzyme activity +/− inhibitors was determined as follows:
All measurements were obtained under conditions where signal production increased linearly with time and enzyme. Test compounds were added to white 384-well assay plates (0.1 μL for 10 μL and some 20 μl assays, 1 μL for some 20 μL assays) at variable known concentrations in 100% DMSO. DMSO (1-5% final, as appropriate) and EDTA (65 mM in reaction) were used as controls.
Reaction Mix (10 or 20 μL) was quickly added to each well immediately following addition of enzyme via automated liquid handlers and incubated 1-1.5 h at 22° C. The 20 μL enzymatic reactions were stopped with 50 μL of stop mix (50 mM EDTA, 4.0 mg/mL Streptavidin SPA beads in Standard Dulbecco's PBS (without Mg^2+ and Ca^2+), 50 μM ATP) per well. The 10 μL reactions were stopped with 10 μL of stop mix (50 mM EDTA, 3.0 mg/mL Streptavidin-coupled SPA Imaging Beads (“LeadSeeker”) in Standard Dulbecco's PBS (without Mg^2+ and Ca^2+), 50 μM ATP) per well. Plates were sealed with clear plastic seals, spun at 500×g for 1 min or settled overnight, and counted in Packard TopCount for 30 seconds/well (regular SPA) or imaged using a Viewlux imager (LeadSeeker SPA). Signal above background (EDTA controls) was converted to percent inhibition relative to that obtained in control (DMSO-only) wells.

T1 sequence (P53350 21-346): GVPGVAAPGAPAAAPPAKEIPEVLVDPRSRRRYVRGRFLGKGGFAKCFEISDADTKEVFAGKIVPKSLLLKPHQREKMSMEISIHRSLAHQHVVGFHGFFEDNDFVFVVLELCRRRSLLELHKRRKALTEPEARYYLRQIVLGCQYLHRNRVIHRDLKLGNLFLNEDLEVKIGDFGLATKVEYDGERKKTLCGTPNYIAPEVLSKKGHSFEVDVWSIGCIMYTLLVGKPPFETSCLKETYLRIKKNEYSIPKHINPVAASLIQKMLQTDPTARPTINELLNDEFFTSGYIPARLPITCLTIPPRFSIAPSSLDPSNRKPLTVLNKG

C[C@@H](Oc1cc(-n2cnc3cc(-c4cn[nH]c4)ccc32)sc1C(N)=O)c1ccccc1C(F)(F)F [Example 5, 5-[5-(1H-Pyrazol-4-yl)-1H-benzimidazol-1-yl]-3-({(1R)-1-[2-(trifluoromethyl)phenyl]ethyl}oxy)-2-thiophenecarboxamide]
IC50 (HCT116): < 100 nM | AUC(0-t) [1]: 1370 ng·h/mL | clearance ([1]; read-out: Plasma CL): 23.1 mL/min/kg | IC50 [2]: 100 to 1000 nM | IC50 (MX-1): < 100 nM | IC50 (H460): < 100 nM | IC50 (A549): < 100 nM | IC50 (RKO): < 100 nM | IC50 (HCT-116): < 100 nM

COc1cc2ncn(-c3cc(OC(C)c4ccccc4Cl)c(C(N)=O)s3)c2cc1OC (stereo not drawn) [PU4870 Ex 126, reference compound]
IC50 (MCF7): > 1000 nM | IC50 (HCT116): < 100 nM | IC50 [2]: 100 to 1000 nM | IC50 (H460): < 100 nM | IC50 (A549): < 100 nM | IC50 (RKO): < 100 nM

COc1cc2ncn(-c3cc(OC(C)c4ccccc4C(F)(F)F)c(C(N)=O)s3)c2cc1OC (stereo not drawn) [PU4870 Ex 127, reference compound]
IC50 (MCF7): 100 to 1000 nM | IC50 [2]: > 1000 nM | IC50 (H460): < 100 nM | IC50 (A549): < 100 nM | IC50 (RKO): < 100 nM | IC50 (PLK1 kinase domain): < 10 nM | IC50 (HCT-116): 100 to 1000 nM

COc1cc2c(cc1OCCCN1CCCC1=O)ncn2-c1cc(OCc2ccccc2C(F)(F)F)c(C(N)=O)s1 [PU4870 Ex 134, reference compound]
IC50 (MCF7): > 1000 nM | IC50 (HCT116): > 1000 nM | IC50 [2]: > 1000 nM | IC50 (H460): > 1000 nM | IC50 (A549): > 1000 nM | IC50 (RKO): > 1000 nM | IC50 (PLK1 kinase domain): 10 to 1000 nM | IC50 (HCT-116): > 1000 nM

NC(=O)c1sc(-n2cnc3cc(C(=O)NCCN4CCNC4=O)ccc32)cc1OCc1ccccc1C(F)(F)F [PU4870 Ex 156, reference compound]
IC50 (MCF7): > 1000 nM | IC50 (HCT116): > 1000 nM | IC50 [2]: > 1000 nM | IC50 (H460): > 1000 nM | IC50 (RKO): > 1000 nM | IC50 (PLK1 kinase domain): 10 to 1000 nM
